This is an account of results in patent publication US20210253598A1, “ARYL ANNULATED MACROCYCLIC INDOLE DERIVATIVES” (priority 2017, published 2021).

“And” between values parts separate entries of the source, which are not always exact repeats. Equal values may be shown once. Read-outs that look alike come from different tables or passages of the source.

For data set [1] the following is noted: from CCOC(=O)c1c(CCCOc2cccc3cc(F)ccc23)c2ccc(Cl)c(-c3c(CC)nn(CCN4CCOCC4)c3CO)c2n1Cc1ccccc1CBr; ether bond; 11-membered ring; NaH/di-tert-butyl imidodicarbonate; DMF; 56.1 mM; […].
The conditions of data set [2]: 50.0 °C.
Data set [3] concerns SUDHL5. Description: Induction of cytotoxicity in SUDHL5 cells, CellTiter-Glo (Assay 6). The class given is cell-based. The conditions noted are these: SUDHL5, 5 hours incubation, median, read-out: Cytotox SUDHL5 [M] (median). The method, boiled down: (§1)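 Overnight seeding at 37 °C, 5 h treatment, CellTiter-Glo added, 15 min shake at RT, luminescence read. Medium without cells as control.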

Data set [4] concerns SUDHL10. Description: Anti-proliferative effect in SUDHL10 cells, CellTiter-Glo (Assay 7). The class given is cell-based. The conditions noted are these: Homo sapiens, SU-DHL10, SUDHL10, 72 hours incubation, median, read-out: Antiproli SUDHL10 [M] (median). The protocol: (§2) Assessment of the Anti-Proliferative Effect of Compounds in Different Cell Lines
(§3) The impact of compounds on the proliferation of different cell lines was assessed using the CellTiter-Glo® Luminescent Cell Viability reagent from Promega (G7573).
(§4) In parallel, cells were plated in a reference (day 0) plate for time zero determination. Cells were incubated in a humidified incubator at 37° C. overnight.
(§5) Rim wells were excluded. The cells were incubated for 72 hours in a humidified incubator at 37° C. The day 0 plate was measured by adding 30 μL/well of CTG solution (CellTiter-Glo® Luminescent Cell Viability reagent, Promega G7573) to time zero wells in the reference plate followed by a 10 minutes incubation and luminescence reading at 0.1 ms. using the PHERAstar FS microplate reader (BMG Labtech).
(§6) After 72 hours incubation, the treated plates were measured in the same way as the day 0 plate mentioned above. The Bella DRC Master Sheet was used to calculate IC50s, with CI=day 0 values and C0=DMSO control values.
(Cellular ATP, detected with luciferase, serves as a proxy for viable cell number.)

For a further data set, the target named is BCL-XL (Homo sapiens, UniProt Q07817). Briefly: Protein-protein interaction assay BCL-XL/Bad BH3 peptide, TR-FRET (BCL-XL assay, Assay 2). Type of data set: binding. Particulars: His-BCL-XL / Bad BH3 peptide, median.
The subject of a further data set is A2780. Description: Anti-proliferative effect in A2780 cells, CellTiter-Glo (Assay 7). The class given is cell-based. Particulars: Homo sapiens, A2780, 72 h, A2780, 72 hours incubation, CellTiter-Glo; several values per example; read-out: Antiproli A2780. The method, boiled down:
(§7)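 Cells plated and incubated overnight at 37° C, then exposed to compound for 72 hours. Viability read as CellTiter-Glo luminescence, with a day 0 plate as time-zero reference. IC50 calculated with day 0 values and DMSO control values as references.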

Data set [5] relates to SUDHL10. Briefly: Induction of caspase-3/7 activity in SUDHL10 cells (Assay 4). Type of data set: cell-based. Particulars: SUDHL10, 3 hours treatment, Caspase-Glo 3/7, median, read-out: Caspase SUDHL10 [M] (median). In short, it runs like this: (§8)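 DLBCL lines SUDHL5 and SUDHL10 were treated with compound for 3 h at 37 °C. Caspase-3/7 activity was then read by Caspase-Glo 3/7 luminescence after 1 h at 37 °C. Medium-only background was subtracted and values were normalized to the mean of DMSO-treated cells.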

The next data set concerns AMO-1. Briefly: Anti-proliferative effect in AMO-1 cells, CellTiter-Glo (Assay 7). Particulars: AMO-1, 72 hours incubation, CellTiter-Glo, several values per example, read-out: Antiproli AMO-1. The class given is cell-based. In short, it runs like this: as §7
Data set [6] has as its system SUDHL5. Briefly: Induction of caspase-3/7 activity in SUDHL5 cells (Assay 4). The class given is cell-based. Particulars: SUDHL5, 3 hours treatment, Caspase-Glo 3/7, median, read-out: Caspase SUDHL5 [M] (median). The method, boiled down: as §8
Data set [7] concerns SUDHL5. Description: Anti-proliferative effect in SUDHL5 cells, CellTiter-Glo (Assay 7). Particulars: SUDHL5, 72 hours incubation, CellTiter-Glo, median, read-out: Antiproli SUDHL5 [M] (median). The class given is cell-based. In short, it runs like this: as §7
The next data set addresses MCL-1 (Homo sapiens, UniProt Q07820, K194A/K197A/R201A). Briefly: Protein-protein interaction assay MCL-1/Noxa BH3 peptide, TR-FRET (MCL-1 assay, Assay 1). The conditions noted are these: MCL-1 Assay [M] (median), MBP-MCL-1 / Noxa BH3 peptide. Type of data set: binding. The method, boiled down:
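Human MBP-fused MCL-1 (aa 173-321; 1 nM final) was pre-incubated 10 min at 22 °C with compound in pH 7 Tris buffer containing NaCl, KF, Tween-20, DTT and BGG. Displacement of biotinylated Noxa BH3 peptide was read by TR-FRET (anti-MBP-Eu cryptate/streptavidin-XL665) after 1 h at 22 °C plus overnight at 4 °C. IC50 came from four-parameter fits against DMSO controls.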

For data set [8], the system named is SUDHL10. Description: Induction of cytotoxicity in SUDHL10 cells, CellTiter-Glo (Assay 6). Particulars: SUDHL10, 5 hours incubation, median, read-out: Cytotox SUDHL10 [M] (median). Type of data set: cell-based. The method, boiled down:
as §1

The target of another data set is BCL-2 (Homo sapiens, UniProt P10415). Briefly: Protein-protein interaction assay BCL-2/Bad BH3 peptide, TR-FRET (BCL-2 assay, Assay 3). Type of data set: binding. Particulars: His-BCL-2 / Bad BH3 peptide, median. (Time-resolved FRET reads energy transfer from a long-lived donor to a nearby acceptor.)
For another data set, the system named is MV-4-11. Briefly: Anti-proliferative effect in MV-4-11 cells, CellTiter-Glo (Assay 7). The class given is cell-based. The conditions noted are these: MV-4-11, 72 hours incubation, CellTiter-Glo, several values per example, read-out: Antiproli MV-4-11. In short, it runs like this:
as §7

A further data set concerns HMC-1-8. Briefly: Anti-proliferative effect in HMC-1-8 cells, CellTiter-Glo (Assay 7). Type of data set: cell-based. Particulars: HMC-1-8, 72 hours incubation, read-out: Antiproli HMC-1-8. The protocol:
as §2, §3, §4, §5, §6

BCL-XL, sequence (Q07817 1-212): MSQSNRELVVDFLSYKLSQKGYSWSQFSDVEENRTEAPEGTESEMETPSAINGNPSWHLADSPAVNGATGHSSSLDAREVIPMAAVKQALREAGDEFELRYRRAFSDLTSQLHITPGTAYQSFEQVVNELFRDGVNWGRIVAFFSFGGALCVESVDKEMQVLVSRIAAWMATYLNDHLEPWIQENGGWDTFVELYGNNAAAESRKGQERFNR
MCL-1, sequence (Q07820 173-321 K194A/K197A/R201A, looked up): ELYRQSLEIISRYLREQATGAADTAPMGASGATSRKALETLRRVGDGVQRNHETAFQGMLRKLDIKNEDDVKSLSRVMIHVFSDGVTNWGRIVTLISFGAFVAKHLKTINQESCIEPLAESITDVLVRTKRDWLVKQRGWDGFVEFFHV
BCL-2, sequence (P10415 1-211): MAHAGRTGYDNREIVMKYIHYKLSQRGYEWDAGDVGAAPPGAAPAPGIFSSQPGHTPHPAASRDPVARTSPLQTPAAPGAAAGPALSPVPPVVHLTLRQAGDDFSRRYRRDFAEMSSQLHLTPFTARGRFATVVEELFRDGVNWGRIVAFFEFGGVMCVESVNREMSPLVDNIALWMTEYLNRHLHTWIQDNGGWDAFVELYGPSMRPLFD
Method for BCL-2: The dose-dependent inhibition by the compounds described in this invention of the interaction between BCL-2 and the BH3 domain of Bad (both human) was determined using a steady state binding competition assay with time-resolved fluorescence energy transfer (TR-FRET) readout. For that purpose BCL-2 (amino acids 1-211, C-terminal fused to a hexahistidine (6×His) tag (SEQ ID 5) and a synthetic Bad BH3-derived peptide of sequence Biotin-PEG2-PEG2-[sequence]-Nle-[sequence]-amide (SEQ ID 4) served as protein receptor and tracer ligand respectively. The recombinant BCL-2 protein (expressed in E. coli) was purchased from BPS Bioscience (San Diego, Calif., USA). The Bad BH3-derived peptide can be obtained from e.g. Biosyntan (Berlin, Germany).
For that, 100-fold concentrated DMSO solutions were prepared by serial dilutions (1:3.4) of a 2 mM stock solution in a clear, 384-well microtiter plate (Greiner Bio-One, Frickenhausen, Germany). From there, 50 nl were transferred in a dark test plate (Greiner Bio-One, Frickenhausen, Germany). The assay was initiated by addition of 2 μl of a 2,5-fold concentrated His-BCL-2 solution (usually for a 1 nM end concentration in 5 μl reaction volume) in aqueous assay buffer [50 mM Tris/HCl pH 7, 100 mM sodium chloride (NaCl), 50 mM potassium fluoride (KF), 0.005% Tween-20, 2 mM DTT, 0.1% bovine gamma globulin (BGG)] to the compounds in the assay plate. This was followed by a 10-minute incubation step at 22° C. for pre-equilibration of the putative complex between His-BCL-2 and the compounds.
The mixture was incubated in the dark for one hour at 22° C. and then overnight at 4° C. The formation of BCL-2/Bad complexes was determined by measuring the resonance energy transfer of the anti-His-Eu-cryptate antibody to the streptavidin-XL665 present in the reaction. For that purpose, the fluorescence emission at 620 nm and 665 nm after excitation at 330-350 nm was measured in a TR-FRET measuring instrument, for instance a Rubystar or a Pherastar (both from BMG Lab Technologies, Offenburg, Germany) or a Viewlux (Perkin-Elmer). The ratio of the emission at 665 nm and at 622 nm was used as indicator of the amount of BCL-2/Bad complexes present.
The resulting data (ratio) were normalized, taking 0% inhibition as the mean value of control measurements (usually 32 data points) where all reagents were included. In this case 50 nl DMSO were used instead of compounds. […] IC50 values were determined by regression analysis based on a 4 parameter equation (minimum, maximum, IC50, Hill; Y=Max+(Min−Max)/(1+(X/IC50)^Hill) using the Screener Software (Genedata).

In turn, `CCOC(=O)c1c(CCCOc2cccc3cc(F)ccc23)c2ccc(Cl)c3c2n1Cc1ccccc1COCc1c-3c(CC)nn1CCN1CCOCC1` gave a ring closure, isolated yield in [1] of 10%. Moreover, the ring closure, yield of all isomers in data set [2] (from CCOC(=O)c1c(CCCOc2cccc3cc(F)ccc23)c2ccc(Cl)c(-c3c(CC)nn(CCN4CCOCC4)c3CO)c2n1Cc1ccccc1CBr, ether bond, NaH / di-tert-butyl imidodicarbonate, DMF, 56.1 mM, […]) is 10%.
In turn, `CCOC(=O)c1c(CCCOc2cccc3ccccc23)c2cccc3c2n1Cc1ccccc1CNCc1nn(C)c(C)c1-3` came in with a ring closure, yield of all isomers in data set [2] (from CCOC(=O)c1c(CCCOc2cccc3ccccc23)c2cccc(-c3c(CBr)nn(C)c3C)c2n1Cc1ccccc1CN, amine bond, cesium carbonate, acetonitrile, 30.6 mM, 15.0 h) of 47.3%.
Take `CCc1c2c(nn1C)COCc1ccccc1Cn1c(C(=O)O)c(CCCOc3cccc4c3CCC4)c3ccc(F)c-2c31` (racemic) [Example 78, (rac)-1-(3-((2,3-Dihydro-1H-inden-4-yl)oxy)propyl)-14-ethyl-15-fluoro-13-methyl-4,9,11,13-tetrahydrobenzo[3,4]pyrazolo[4′,3′:9,10][1]oxa[6]azacycloundecino[8,7,6-hi]indole-2-carboxylic]: the IC50 with SUDHL5 [3] (Homo sapiens, SU-DHL-5, 5 h) is 2.1e-06 M; in the data set with SUDHL10 [4], 1.9e-06 M; at BCL-XL, over 20 µM; in the data set with A2780 it was 5.04 µM; in the data set with AMO-1, 6.82 µM; in the data set with AMO-1 (Homo sapiens, AMO1, 72 h) it was 6.61 µM. Also, the IC50 was 3.3e-06 M with SUDHL5 [7] (Homo sapiens, SU-DHL-5, 72 h); 1.9e-09 M against MCL-1; 3.7e-06 M in the data set with SUDHL10 [8] (Homo sapiens, SU-DHL10, 5 h); over 20 µM at BCL-2. Further, the EC50 in the data set on SUDHL10 [5] (Homo sapiens, SU-DHL10, 3 h) is 5.2e-06 M; in the data set on SUDHL5 [6] (Homo sapiens, SU-DHL-5, 3 h), 2.1e-06 M.
Regarding `Cc1nn(C)c2c1-c1c(F)ccc3c(CCCOc4cccc5cc(F)ccc45)c(C(=O)O)n(c13)Cc1ccccc1COC2` (racemic) [Example 81, (rac)-15-Fluoro-1-(3-((6-fluoronaphthalen-1-yl)oxy)propyl)-12,14-dimethyl-4,9,11,12-tetrahydrobenzo[3,4]pyrazolo[4′,3′:9,10][1]oxa[6]azacycloundecino[8,7,6-hi]indole-2-carboxylic Acid], the IC50 was 7.69 µM in the data set on MV-4-11 (Homo sapiens, MV4-11, 72 h); 7.82 µM and 6.41 µM with MV-4-11; 2.5e-06 M with SUDHL5 [3] (Homo sapiens, SU-DHL-5, 5 h); 3e-06 M in the data set with SUDHL10 [4]; over 20 µM against BCL-XL; 7.08 µM and 4.13 µM in the data set on AMO-1. Further, the IC50 stood at 6.52 µM in the data set on AMO-1 (Homo sapiens, AMO1, 72 h); 3.3e-06 M in the data set with SUDHL5 [7] (Homo sapiens, SU-DHL-5, 72 h); 4.6e-09 M against MCL-1; 4e-06 M in the data set on SUDHL10 [8] (Homo sapiens, SU-DHL10, 5 h); 18 µM against BCL-2. In addition, the EC50 in the data set on SUDHL10 [5] (Homo sapiens, SU-DHL10, 3 h) came out at 5.2e-06 M; in the data set with SUDHL5 [6] (Homo sapiens, SU-DHL-5, 3 h), 2.1e-06 M.
Regarding `CCc1nn(C)c2c1-c1c(F)ccc3c(CCCOc4cccc5cc(F)ccc45)c(C(=O)O)n(c13)Cc1ccccc1COC2` (racemic) [Example 90, (rac)-14-Ethyl-15-fluoro-1-(3-((6-fluoronaphthalen-1-yl)oxy)propyl)-12-methyl-4,9,11,12-tetrahydrobenzo[3,4]pyrazolo[4′,3′:9,10][1,6]oxaazacycloundecino[8,7,6-hi]indole-2-carboxylic Acid], the IC50 in the data set on MV-4-11 (Homo sapiens, MV4-11, 72 h) is 4.98 µM; with MV-4-11, 8.53 µM and 6.99 µM; with SUDHL10 [4], 2.1e-06 M; against BCL-XL, over 20 µM; in the data set with AMO-1, 10.3 µM and 6.91 µM; with AMO-1 (Homo sapiens, AMO1, 72 h) it was 5.58 µM. The IC50 with SUDHL5 [7] (Homo sapiens, SU-DHL-5, 72 h) was found to be 2e-06 M; against MCL-1, 3.2e-09 M; at BCL-2, 17.8 µM. In addition, the EC50 in the data set on SUDHL10 [5] (Homo sapiens, SU-DHL10, 3 h) worked out at 6.6e-06 M; with SUDHL5 [6] (Homo sapiens, SU-DHL-5, 3 h), 1.4e-06 M.
For the molecule `Cc1c2c(nn1C)COCc1nccnc1Cn1c(C(=O)O)c(CCCOc3cccc4cc(F)ccc34)c3ccc(Cl)c-2c31` (racemic) [Example 93, (rac)-3-Chloro-17-{3-[(6-fluoronaphthalen-1-yl)oxy]propyl}-4,5-dimethyl-5,7,9,14-tetrahydropyrazino[2′,3′:3,4]pyrazolo[4′,3′:9,10][1,6]oxazacycloundecino[8,7,6-hi]indole-16-carboxylic Acid], the IC50 was 15.1 µM in the data set with MV-4-11 (Homo sapiens, MV4-11, 72 h); 2.8e-06 M in the data set on SUDHL5 [3] (Homo sapiens, SU-DHL-5, 5 h); over 20 µM at BCL-XL; over 33 µM with A2780; 7.19 µM in the data set on AMO-1 (Homo sapiens, AMO1, 72 h); 2.5e-06 M in the data set with SUDHL5 [7] (Homo sapiens, SU-DHL-5, 72 h). Further, the IC50 is 1.5e-09 M on MCL-1; 6.7e-06 M with SUDHL10 [8] (Homo sapiens, SU-DHL10, 5 h); 32 µM in the data set with HMC-1-8 (72 h); over 20 µM on BCL-2. The EC50 in the data set with SUDHL10 [5] (Homo sapiens, SU-DHL10, 3 h) turned out to be 1e-05 M; in the data set with SUDHL5 [6] (Homo sapiens, SU-DHL-5, 3 h), 2.5e-06 M.
For `Cc1c2c(nn1C)COCc1nccnc1Cn1c(C(=O)O)c(CCCOc3cccc4ccccc34)c3ccc(Cl)c-2c31` (single isomer, unassigned; enantiomer 1) [Example 46, 3-Chloro-4,5-dimethyl-17-{3-[(naphthalen-1-yl)oxy]propyl}-5,7,9,14-tetrahydropyrazino-[2′,3′:3,4]pyrazolo[4′,3′:9,10][1,6]oxazacycloundecino[8,7,6-hi]indole-16-carboxylic Acid (Enantiomer 1)], the IC50 in the data set with MV-4-11 was 5.27 µM; against BCL-XL, over 20 µM; in the data set with AMO-1 (Homo sapiens, AMO1, 72 h), 6.15 µM; in the data set with SUDHL10 [8], 7e-06 M; in the data set with HMC-1-8 (72 h), 11.9 µM; on BCL-2, over 20 µM. Further, the EC50 worked out at 7.3e-06 M in the data set with SUDHL10 [5] and 1.8e-06 M in the data set on SUDHL5 [6].
As for `Cc1c2c(nn1C)COCc1nccnc1Cn1c(C(=O)O)c(CCCOc3cccc4ccccc34)c3ccc(Cl)c-2c31` (single isomer, unassigned; enantiomer 2) [Example 47, 3-Chloro-4,5-dimethyl-17-{3-[(naphthalen-1-yl)oxy]propyl}-5,7,9,14-tetrahydropyrazino-[2′,3′:3,4]pyrazolo[4′,3′:9,10][1,6]oxazacycloundecino[8,7,6-hi]indole-16-carboxylic Acid (Enantiomer 2)], the IC50 was found to be 11.7 µM in the data set with MV-4-11; 4.8e-06 M in the data set on SUDHL5 [3]; 11.5 µM in the data set on AMO-1; 4.6e-06 M in the data set on SUDHL5 [7]; 1.9e-05 M with SUDHL10 [8]; 16.1 µM in the data set with HMC-1-8. The EC50 with SUDHL10 [5] worked out at 1.6e-05 M; in the data set with SUDHL5 [6], 4.7e-06 M.
